Where two headings read alike, the source gives them in different places.
Legend:
[1] = tested on: spores of B.subtilis var. Niger; test: sporostatic activity (a), Petri dish dilution; format: cell-based; settings: for number of colonies (average of 2 tests): approximately 200 spores
Description: (a) 1 cc of a suspension of spores of B.subtilis var. Niger containing approximately 200 spores is placed in one Petri dish, whilst 1 cc of a solution containing 3 g/100 cc of the product (mother solution) or of the same mother solution diluted to 1/10th, 1/100th, etc. up to 1/100,000th, are placed in other Petri dishes. Following the addition of a culture medium, the dishes are agitated, cooled and then placed in an oven. The number of colonies obtained are then determined.

Bacillus pyocyaneus = test: MIC study in a solid medium on 35 strains of Bacillus pyocyaneus; format: cell-based; settings: Pseudomonas aeruginosa, majority of 35 strains, read-out: minimum inhibiting concentration
[2] = acute toxicity, intragastric, mice; settings: mouse, in vivo, po, both after 48 hours and after 14 days
Description: (§1) The LD50 was calculated by the graphic method of J. T. Lichtfield and F. Wilcoxon (J. Pharm. Exp. Ther. 1949, 96: 99-[…]).

[3] = aggressiveness to the skin by repeated application; format: in vivo
Source text: The method used is the method described in the Official Journal of Apr. 28, 1971 for the analysis of cosmetics and beauty products, and comprises applying 0.5 cc of 2% solution over a period of 1 month to the two zones treated, one normal, the other raw, a control zone being reserved on the hindquarters of the animal.

[4] = acute toxicity, intragastric, rats; settings: rat, in vivo, po, both after 48 hours and after 14 days
Description: as §1

Enterbacter cloacae = test: bacteriostatic activity (MIC), Enterbacter cloacae; format: cell-based; settings: 48 h, Table I, 37° C., read-out: MIC
Description: The medium containing the solution to be tested is inoculated in the form of three single striae with a 10^-5 times dilution of a bacterial culture aged 16 to 18 hours grown in salted peptone broth at a temperature of 37° C. After inoculation, the media are stored at 37° C. for 48 hours, after which the bacterial growth is inspected. The MIC (minimum inhibiting concentrations) are expressed in micrograms of pure product per cubic centimeter of gelose medium required for inhibiting the culture (μg/cc). The control substance used is benzalconium chloride.

Staphyloccus aureus = test: bacteriostatic activity (MIC), Staphylococcus aureus; format: cell-based; settings: Staphylococcus aureus, 48 h
Description: The medium containing the solution to be tested is inoculated in the form of three single striae with a 10^-5 times dilution of a bacterial culture aged 16 to 18 hours grown in salted peptone broth at a temperature of 37° C.
After inoculation, the media are stored at 37° C. for 48 hours, after which the bacterial growth is inspected. The MIC (minimum inhibiting concentrations) are expressed in micrograms of pure product per cubic centimeter of gelose medium required for inhibiting the culture (μg/cc). The control substance used is benzalconium chloride.
Tests were also carried out to determine the bacteriostatic activity of other compounds according to the invention by the method described above and in comparison with known substances, in particular with benzalconium chloride (compound T in the Tables).

M pyogenes aureus = test: bactericidal activity, M pyogenes aureus; format: cell-based; settings: Table II, 2 hours contact, laboratory temperature; read-out: MIC (bactericidal activity)
Description: Bactericidal activity is determined by the following methods: A titrate suspension of bacteria is brought into contact over a period of 2 hours at the temperature of the laboratory with increasing dilutions of the test product. The number of bacteria still alive are counted after passage through a filtering membrane.

Q: What does the source list for `CCCCCCCCCCOCC(O)CN.Cl` (stereo not shown) [Compound 1, 3-decyloxy-2-hydroxy-1-aminopropane hydrochloride]?
A: number of colonies (average of 2 tests) ([1]; 0 dilutions to 1/10 (mother solution 3 g/100 cc)): 0; number of colonies (average of 2 tests) ([1]; 1 dilution to 1/10 of mother solution 3 g/100 cc): 0; number of colonies (average of 2 tests) ([1]; 2 dilutions to 1/10 of mother solution 3 g/100 cc): 18; number of colonies (average of 2 tests) ([1]; 3 dilutions to 1/10 of mother solution 3 g/100 cc): > 200; number of colonies (average of 2 tests) ([1]; 4 dilutions to 1/10 of mother solution 3 g/100 cc): > 200; number of colonies (average of 2 tests) ([1]; 5 dilutions to 1/10 of mother solution 3 g/100 cc): > 200; MIC ([1]; Bacillus subtilis, taking into account the dilution by the gelose culture medium, from Table III, read-out: concentration still showing sporostatic activity): 20 µg/mL; MIC (Bacillus pyocyaneus): 62.5 µg/mL; LD50 [2]: 1300 mg/kg; histological examination of skin ([3]; 0.5 cc of 2% solution over 1 month): did not reveal any significant modification; local tolerance (skin) ([3]; 0.5 cc of 2% solution over 1 month, normal and raw zones): Good local tolerance; haematological examination ([3]; blood from the ear vein on completion of the test): normal blood formula; LD50 [4]: 1300 mg/kg; MIC (Enterbacter cloacae; with 20% of serum): 80 µg/mL; MIC (Enterbacter cloacae; without serum): 30 µg/mL; MIC (Staphyloccus aureus; Table I, with 20% of serum, 37° C., 48 hours, read-out: MIC): 120 µg/mL; MIC (Staphyloccus aureus; Table I, without serum, 37° C., 48 hours, read-out: MIC): 60 µg/mL; MIC (Staphyloccus aureus; Table VI, bacteriostase containing 20% of serum, read-out: M.I.C.): 75 µg/mL; MBC (M pyogenes aureus): 100 µg/mL
